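In this assay, cells in 96-well plates receive the compound at five concentrations for 48 hours. Endpoints are linearly interpolated between the surrounding concentrations. Abbreviation: GI50, concentration required for 50% inhibition of growth.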 Calls of active or inactive are those of the source. No stated cut-off is given here; in the data, active = GI50 up to about 1.1 µM and inactive = higher.
Assays:
Experiment in all cases: NCI anticancer screen, dose series, 48 h
RXF 393 = system: RXF 393
RPMI-8226 = system: RPMI-8226
NCI-H23 = system: NCI-H23
HCT-15 = system: HCT-15
SNB-78 = system: SNB-78
HL-60 = system: HL-60
A498 = system: A498
UO-31 = system: UO-31
NCI/ADR-RES = system: NCI/ADR-RES
DLD-1 = system: DLD-1
LOX IMVI = system: LOX IMVI
SF-539 = system: SF-539
IGROV-1 = system: IGROV-1
K562 = system: K562
SR = system: SR
ACHN = system: ACHN
SF-268 = system: SF-268
NCI-H226 = system: NCI-H226
MDA-MB-435 = system: MDA-MB-435
MDA-N = system: MDA-N

Measured: GI50

O=C(/C=C\c1ccc(/C=C/C(=O)Nc2cccc(C3=NCCCN3)c2)cc1)Nc1cccc(C2=NCCCN2)c1
> 100 µM: HCT-15
inactive: RXF 393 > 100 µM | RPMI-8226 33.9 µM | NCI-H23 > 100 µM | SNB-78 > 100 µM | HL-60 > 100 µM | A498 > 74.3 µM | UO-31 > 100 µM | NCI/ADR-RES > 100 µM | DLD-1 > 100 µM | LOX IMVI > 100 µM | SF-539 > 100 µM | IGROV-1 > 100 µM | K562 > 100 µM

Cc1cc(C)c2c(c1)CSCc1cc(C)cc(C)c1-2
32.4 µM: HCT-15
inactive: RXF 393 39.4 µM | RPMI-8226 22.9 µM | NCI-H23 36.9 µM | SR 23.9 µM | SNB-78 25.1 µM | HL-60 21.1 µM | A498 28.1 µM | ACHN 35.4 µM | UO-31 39.4 µM | DLD-1 33.3 µM | LOX IMVI 17.3 µM | SF-268 38.7 µM | IGROV-1 34.1 µM | K562 32.8 µM | NCI-H226 38.8 µM

Sc1nnc(COc2ccc(Cl)cc2Cl)[nH]1
> 100 µM: HCT-15
inactive: RXF 393 > 100 µM | RPMI-8226 > 100 µM | NCI-H23 > 100 µM | SR > 100 µM | SNB-78 > 100 µM | HL-60 26.4 µM | A498 > 100 µM | ACHN > 100 µM | UO-31 > 100 µM | DLD-1 > 100 µM | LOX IMVI > 100 µM | SF-268 > 100 µM | SF-539 > 100 µM | IGROV-1 > 100 µM | K562 > 100 µM | NCI-H226 > 100 µM

Nc1c(Cl)ncnc1NCCCNc1ncnc(Cl)c1N
> 100 µM: HCT-15
inactive: RXF 393 > 100 µM | RPMI-8226 > 100 µM | NCI-H23 53.8 µM | SR > 100 µM | SNB-78 > 100 µM | HL-60 > 100 µM | A498 > 100 µM | ACHN > 100 µM | UO-31 95.3 µM | DLD-1 > 100 µM | LOX IMVI > 100 µM | SF-268 > 100 µM | SF-539 > 100 µM | IGROV-1 > 100 µM | K562 > 100 µM | NCI-H226 > 100 µM

O=S1(=O)OCCOS(=O)(=O)C1Br
inactive: RPMI-8226 > 100 µM | NCI-H23 > 100 µM | SR > 100 µM | SNB-78 > 100 µM | HL-60 > 100 µM | A498 > 100 µM | UO-31 39.1 µM | DLD-1 > 100 µM | SF-268 > 100 µM | SF-539 > 100 µM | IGROV-1 > 100 µM | K562 > 100 µM
active: NCI-H226 < 0.01 µM

CC(OC1CC(=O)CC2C(=O)C=CC(=O)C12)c1ccccc1 (configuration not stated)
17.1 µM: HCT-15
inactive: RXF 393 18.9 µM | RPMI-8226 17.3 µM | NCI-H23 18.1 µM | SR 19.1 µM | SNB-78 19.5 µM | HL-60 3.25 µM | A498 18.1 µM | ACHN 11.2 µM | UO-31 16 µM | DLD-1 12.9 µM | LOX IMVI 17.2 µM | SF-268 21.2 µM | SF-539 19.8 µM | IGROV-1 17.4 µM | K562 3.31 µM | NCI-H226 20 µM

COC(=O)[C@]12CC=C3O[C@@H]4OC5(CCCCC5)O[C@@H]4[C@H]3C1C(=O)C=CC2=O (some centres not stated)
15.6 µM: HCT-15
inactive: MDA-MB-435 > 10 µM | RXF 393 8.73 µM | RPMI-8226 7.64 µM | NCI-H23 17.1 µM | SR 22.3 µM | SNB-78 18.8 µM | MDA-N 19.1 µM | HL-60 8.91 µM | A498 17.9 µM | ACHN 18.5 µM | UO-31 17 µM | NCI/ADR-RES 18.1 µM | DLD-1 15.5 µM | LOX IMVI 16.8 µM | SF-268 3.97 µM | SF-539 19.6 µM | IGROV-1 18.4 µM | K562 14.6 µM | NCI-H226 18.6 µM

Cc1ccc(S(=O)(=O)N/N=c2\c(C)c(C3=NS(=O)(=O)c4cc(S(N)(=O)=O)c(Cl)cc4N3)oc3c(Cl)cc(Cl)cc23)cc1
39.4 µM: HCT-15
inactive: RXF 393 59.7 µM | RPMI-8226 36.9 µM | NCI-H23 > 100 µM | SR > 100 µM | SNB-78 > 100 µM | HL-60 > 100 µM | A498 > 100 µM | ACHN > 100 µM | UO-31 > 100 µM | DLD-1 > 100 µM | LOX IMVI 86.5 µM | SF-268 > 100 µM | SF-539 > 100 µM | IGROV-1 > 100 µM | K562 61.1 µM | NCI-H226 > 100 µM

CCCCCCCC(=O)OC[C@H](C[As](=O)(O)O)OC(=O)CCCCCCC
10.5 µM: HCT-15
inactive: RXF 393 3.92 µM | RPMI-8226 5.36 µM | NCI-H23 14.3 µM | SR 3.05 µM | SNB-78 14 µM | HL-60 3.97 µM | A498 11.5 µM | ACHN 10.7 µM | UO-31 2.27 µM | DLD-1 14.1 µM | SF-268 1.82 µM | SF-539 5.13 µM | IGROV-1 3.57 µM | K562 12.7 µM | NCI-H226 5.9 µM

Cc1ccc(S(=O)(=O)OC2CSSCC2OS(=O)(=O)c2ccc(C)cc2)cc1 (configuration not stated)
inactive: RXF 393 20.9 µM | RPMI-8226 13.2 µM | NCI-H23 17.9 µM | SR 7.69 µM | SNB-78 20 µM | HL-60 2.62 µM | ACHN 15.3 µM | UO-31 15.2 µM | DLD-1 11 µM | LOX IMVI 13.8 µM | SF-268 14.7 µM | SF-539 10.5 µM | IGROV-1 16.8 µM | K562 14.9 µM | NCI-H226 17.9 µM
10.2 µM: HCT-15

CN(C)C(=S)/N=c1\ssc(=S)n1Cc1ccco1
inactive: RPMI-8226 1.48 µM | NCI-H23 2.38 µM | SR 1.97 µM | SNB-78 3.18 µM | A498 1.38 µM | ACHN 32.3 µM | UO-31 5.57 µM | DLD-1 2.86 µM | LOX IMVI 2.4 µM | SF-268 7.46 µM | SF-539 1.95 µM | IGROV-1 11.1 µM | NCI-H226 12 µM
active: MDA-MB-435 0.274 µM | RXF 393 0.998 µM | MDA-N 0.22 µM | HL-60 0.379 µM | K562 0.348 µM
2.2 µM: HCT-15

COC(=O)C1[C@H](c2ccc3c(c2)OCO3)OC(=O)[C@]1(C(=O)OC)C(=O)c1ccc(OC)c(OC)c1 (some centres not stated)
33.7 µM: HCT-15
inactive: RPMI-8226 46.2 µM | NCI-H23 29.3 µM | SR 34.2 µM | SNB-78 56.8 µM | HL-60 25.2 µM | A498 > 100 µM | ACHN 60.3 µM | UO-31 87.3 µM | DLD-1 17.4 µM | LOX IMVI 18.8 µM | SF-539 > 10 µM | IGROV-1 42.3 µM | K562 36 µM | NCI-H226 > 100 µM

From ChEMBL document CHEMBL1201862, “PubChem BioAssay data set” (2004)
